US11873298B2, “Compounds and uses thereof” (JANSSEN PHARMACEUTICA NV, priority 2017, dated 2024)
“And” between values parts separate entries of the source, which are not always exact repeats. Identical values can stand only once.

Legend:
Type in all cases: cell-based
SCD5 = molecular target: T1, SCD5 (Homo sapiens, UniProt Q86SK9); test: Growth inhibition of humanized yeast strain expressing SCD5 as sole desaturase; conditions: humanized yeast strain expressing SCD5
T1 construct: host or cells: S. cerevisiae ole1Δ strain (W303 pdr1Δ pdr3Δ background), plasmid pRS316 with TDH3 promoter and CYC1 terminator
T1 sequence (Q86SK9 1-330): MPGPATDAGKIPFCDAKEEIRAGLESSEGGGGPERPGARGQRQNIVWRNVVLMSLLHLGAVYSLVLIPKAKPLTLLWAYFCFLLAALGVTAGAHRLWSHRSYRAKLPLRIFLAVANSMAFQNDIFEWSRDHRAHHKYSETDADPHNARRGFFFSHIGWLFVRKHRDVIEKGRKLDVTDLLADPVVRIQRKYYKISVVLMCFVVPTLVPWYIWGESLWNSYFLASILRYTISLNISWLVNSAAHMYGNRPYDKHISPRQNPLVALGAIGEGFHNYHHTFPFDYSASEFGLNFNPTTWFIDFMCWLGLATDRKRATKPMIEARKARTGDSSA
Procedure, shortened: (§1)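 Plasmid-complemented ole1Δ yeast, drug-pump deleted (pdr1Δ pdr3Δ), depend solely on the introduced Ole1, SCD1 or SCD5 desaturase. Compounds are added from DMSO to cells in uracil-free galactose medium, 2× density 0.02, and OD600 is read after 24 h or 40 h respectively.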

Ole1 = molecular target: T2, Ole1 (Saccharomyces cerevisiae, UniProt P21147); test: Growth inhibition of yeast strain expressing Ole1 as sole desaturase; conditions: yeast strain expressing Ole1 as sole desaturase
T2 construct: expressed in transfected cells; host or cells: S. cerevisiae ole1Δ strain (W303 pdr1Δ pdr3Δ background), plasmid pRS316 with TDH3 promoter and CYC1 terminator
T2 sequence (P21147 1-510): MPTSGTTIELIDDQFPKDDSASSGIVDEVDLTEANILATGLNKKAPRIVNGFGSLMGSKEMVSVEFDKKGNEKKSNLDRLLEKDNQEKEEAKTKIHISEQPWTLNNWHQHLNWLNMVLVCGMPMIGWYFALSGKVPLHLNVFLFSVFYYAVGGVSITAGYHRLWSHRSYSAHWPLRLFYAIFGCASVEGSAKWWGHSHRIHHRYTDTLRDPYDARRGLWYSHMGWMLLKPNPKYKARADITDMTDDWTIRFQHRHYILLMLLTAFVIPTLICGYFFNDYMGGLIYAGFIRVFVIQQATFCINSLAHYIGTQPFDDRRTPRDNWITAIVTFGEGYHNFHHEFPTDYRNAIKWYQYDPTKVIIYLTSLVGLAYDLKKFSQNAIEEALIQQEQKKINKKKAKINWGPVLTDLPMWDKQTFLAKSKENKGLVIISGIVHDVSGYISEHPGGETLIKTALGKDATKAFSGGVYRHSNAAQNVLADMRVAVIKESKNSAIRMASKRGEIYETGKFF
Procedure, shortened: as §1

SCD1 = molecular target: T3, SCD1 (Homo sapiens, UniProt O00767); test: Growth inhibition of humanized yeast strain expressing SCD1 as sole desaturase; conditions: humanized yeast strain expressing SCD1
T3 construct: host or cells: S. cerevisiae ole1Δ strain (W303 pdr1Δ pdr3Δ background), plasmid pRS316 with TDH3 promoter and CYC1 terminator
T3 sequence (O00767 1-359): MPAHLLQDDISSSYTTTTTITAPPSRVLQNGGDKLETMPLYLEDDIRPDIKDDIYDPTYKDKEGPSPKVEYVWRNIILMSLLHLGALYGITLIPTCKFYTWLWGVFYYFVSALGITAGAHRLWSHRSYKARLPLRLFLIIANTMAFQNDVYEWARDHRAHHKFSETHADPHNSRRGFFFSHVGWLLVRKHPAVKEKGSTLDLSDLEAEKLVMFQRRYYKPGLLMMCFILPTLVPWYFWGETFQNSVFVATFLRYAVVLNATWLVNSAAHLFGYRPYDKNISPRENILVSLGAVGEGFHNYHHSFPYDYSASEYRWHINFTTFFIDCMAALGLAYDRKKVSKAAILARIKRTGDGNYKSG
Procedure, shortened: as §1

Compound	IC50 (SCD5) [µM]	SCD5 % Max Inhibition (SCD5)	IC50 (Ole1) [µM]	OLE1 % Max Inhibition (Ole1)	IC50 (SCD1) [µM]	SCD1 % Max Inhibition (SCD1)
Cc1nn(C)c2cc(-c3noc(C4CCN(C(=O)CN5Cc6ccccc6C5=O)CC4)n3)cnc12 [Compound 200]	41.1	64.72%	> 45	2.69%	> 45	79.67%
CC(C)(CO)n1cc2ccc(-c3noc(C4CCN(C(=O)C5CC(=O)N(c6ccccc6)C5)CC4)n3)cc2n1 (centres unmarked) [Compound 201]	32.9	65.14%	> 45	85.29%	> 45	79.67%
CC(C)(CO)n1cc2ccc(-c3noc(C4CCN(C(=O)CNC(=O)c5ccccc5)CC4)n3)cc2n1 [Compound 202]	> 45	74.20%	> 45	94.93%	> 45	74.09%
CC(C)(CO)n1ncc2ccc(-c3noc(C4CCN(C(=O)C5CC(=O)N(c6ccccc6)C5)CC4)n3)cc21 (centres unmarked) [Compound 203]	> 45	80.12%	> 45	100.03%	> 45	84.83%
CC(C)c1ccc(C(=O)N2CCC(c3nc(-c4ccc5cnn(C)c5c4)no3)CC2)cc1 [Compound 204]	> 45	0.25% and 2.95%	> 45	79.30% and 50.38%	> 45	30.36% and 21.99%
CC(C)c1cccc(C(=O)N2CCC(c3nc(-c4ccc5cnn(C)c5c4)no3)CC2)c1 [Compound 205]	> 45	1.01%	> 45	94.02%	> 45	31.70%
COc1ccc(N2CC(C(=O)N3CCC(c4nc(-c5ccc6c(C)nn(C)c6c5)no4)CC3)CC2=O)cc1 (centres unmarked) [Compound 206]	> 45	19.89%	> 45	5.25%	> 45	93.66%
Cc1nn(C)c2cc(-c3noc(N4C[C@H]5CN(C(=O)CNC(=O)c6ccccc6)C[C@H]5C4)n3)ccc12 [Compound 207]	> 45	72.56%	> 45	5.39%	> 45	86.42%
Cn1ncc2ccc(-c3noc(C4CCN(C(=O)c5ccnc(-c6ccccc6)c5)CC4)n3)cc21 [Compound 208]	> 45	5.68%	> 45	96.63%	> 45	14.04%
Cc1nn(C)c2cc(-c3noc(C4CCN(C(=O)CNC(=O)c5ccccc5)C4)n3)ccc12 (centres unmarked) [Compound 209]	> 45	78.88%	> 45	3.74%	> 45	101.51%
Cc1nn(C)c2cc(-c3noc(N4CCC(C(=O)N5CCO[C@@H](c6ccccc6)C5)CC4)n3)ccc12 [Compound 210]	> 45	3.39%	> 45	2.27%	> 45	30.48%
Cc1nn(C)c2cc(-c3noc(N4CCC(C(=O)N5CCO[C@H](c6ccccc6)C5)CC4)n3)ccc12 [Compound 211]	> 45	6.95%	> 45	2.65%	> 45	39.99%
Cc1nn(C)c2cc(-c3noc(N4CC5(CN(C(=O)CNC(=O)c6ccccc6)C5)C4)n3)ccc12 [Compound 212]	> 45	76.28%	> 45	100.82%	> 45	76.79%
Cn1ncc2ccc(NC(=O)C3CCN(C(=O)C4CC(=O)N(c5ccccc5)C4)CC3)cc21 (centres unmarked) [Compound 213]	> 45	85.33%	> 45	94.72%	> 45	86.35%
Cn1c(=O)n(C)c2cc(-c3noc(C4CCN(C(=O)[C@@H](CO)NC(=O)c5ccccc5)CC4)n3)ccc21 [Compound 214]	> 45	74.58%	> 45	15.08%		65.73%
Cc1ncc2ccc(-c3noc(C4CCN(C(=O)CNC(=O)c5ccccc5)CC4)n3)cn12 [Compound 215]	> 45	78.96%	> 45	48.68%	> 45	88.23%
Cc1ncc2ccc(-c3noc(C4CCN(C(=O)C5CC(=O)N(c6ccccc6)C5)CC4)n3)cn12 (centres unmarked) [Compound 216]	> 45	75.59%	35.1	61.84%	> 45	83.82%
CCOc1ccc(-c2noc(N3CCC(C(=O)N4CCO[C@@H](c5ccccc5)C4)CC3)n2)cc1OC [Compound 217]	> 45	12.62%	> 45	10.39%	36.9	57.90%
CCOc1ccc(-c2noc(N3CCC(C(=O)N4CCO[C@H](c5ccccc5)C4)CC3)n2)cc1OC [Compound 218]	> 45	25.15%	> 45	4.63%	> 45	48.31%
Cc1nn(C)c2cc(-c3noc(N4CCN(C(=O)CN5Cc6ccccc6C5=O)CC4)n3)ccc12 [Compound 219]	> 45	89.83%	> 45	3.50%	> 45	95.22%
O=C(C1CC(=O)N(c2ccccc2)C1)N1CCC(c2nc(-c3ccc4c(c3)COC4)no2)CC1 (centres unmarked) [Compound 220]	> 45	13.65%	> 45	3.10%	> 45	87.27%
COc1ccc(-c2nccc(C3CCN(C(=O)CNC(=O)c4ccccc4)CC3)n2)cc1OC [Compound 221]	> 45	93.18%	> 45	113.54%	> 45	100.56%
Cc1nn(C)c2cc(-c3noc(C4CCN(C(=O)CNC(=O)c5ccsc5)CC4)n3)ccc12 [Compound 222]	> 45	1.92%	> 45	3.59%	> 45	40.42%
O=C(CN1Cc2ccccc2C1=O)N1CCC(c2nc(-c3ccc4c(c3)COC4)no2)CC1 [Compound 223]	41	67.37%	> 45	2.22%	40.6	68.23%
CCOc1ccc(-c2noc(N3CCN(C(=O)CN4Cc5ccccc5C4=O)CC3)n2)cc1OC [Compound 225]	> 45	88.95%	> 45	20.97%	> 45	94.06%
Cc1nn(C)c2cc(-c3noc(C4CCN(C(=O)CNC(=O)c5ccsn5)CC4)n3)ccc12 [Compound 226]	> 45	0.69%	> 45	1.24%	> 45	33.20%
